Reference: US6706740B2, “Fungicidal heterocyclic aromatic amides and their compositions, methods of use and preparation” (Dow AgroSciences LLC, priority 1999, dated 2004)

Tested on: Septoria tritici—SEPTTR
Test: Leaf Blotch of Wheat, in vivo whole plant, 24 Hour Protectant
Conditions: Zymoseptoria tritici, 24 h, wheat plants sprayed at 100 ppm, inoculated after 24 hours; control of fungal infection vs untreated plants; read-out: SEPTTR in vivo 1 Day Protectant
With O=C(NCc1ccc(Cl)c(Cl)c1)c1cccnc1O [Compound 517] the pest or weed control at 100 ppm was less than 25%.
COc1nc(O)c(C(=O)N[C@H]2COC(=O)[C@H](Cc3ccccc3)[C@@H](OC(=O)C(C)C)[C@H](C)OC2=O)nc1Cl [Compound 537] gave a pest or weed control at 100 ppm of 25 to 74%.
For Cc1ccnc(C(=O)N[C@H]2COC(=O)[C@H](Cc3ccccc3)[C@@H](OC(=O)C(C)C)[C@H](C)OC2=O)c1OC(=O)C(C)C [Compound 572], the pest or weed control at 100 ppm was 25 to 74%.

Same assay, conditions: in vivo
For Br.COc1ccnc(C(=O)NC2C[C@@H](Cc3ccccc3)O[C@@H](C)C2)c1O (stereo partly drawn) [Compound 311], the “SEPTTR in vivo 1 Day Protectant” value was “+ +”.

Tested on: Phytophthora infestans (PHYTIN)
Test: microbe, parasite or virus in culture
Format: cell-based
Conditions: Phytophthora infestans, read-out: PHYTIN in vitro Growth Inhibition
Work on O=C(NCc1ccc(Cl)c(Cl)c1)c1cccnc1O [Compound 517] yielded an inhibition at 25 ppm of less than 80%.
With COc1nc(O)c(C(=O)N[C@H]2COC(=O)[C@H](Cc3ccccc3)[C@@H](OC(=O)C(C)C)[C@H](C)OC2=O)nc1Cl [Compound 537] the inhibition at 25 ppm was less than 80%.
In the case of Cc1ccnc(C(=O)N[C@H]2COC(=O)[C@H](Cc3ccccc3)[C@@H](OC(=O)C(C)C)[C@H](C)OC2=O)c1OC(=O)C(C)C [Compound 572], the inhibition at 25 ppm is reported as less than 80%.
Compound Br.COc1ccnc(C(=O)NC2C[C@@H](Cc3ccccc3)O[C@@H](C)C2)c1O (stereo partly drawn) [Compound 311] has an inhibition at 25 ppm of less than 80%.

Tested on: Puccinia recondita—PUCCRT
Test: Brown Rust of Wheat, in vivo whole plant, 24 Hour Protectant
Conditions: Puccinia, 24 h, read-out: PUCCRT in vivo 1 Day Protectant
Br.COc1ccnc(C(=O)NC2C[C@@H](Cc3ccccc3)O[C@@H](C)C2)c1O (stereo partly drawn) [Compound 311] showed a pest or weed control at 100 ppm of 25 to 74%.

Same assay, conditions: Puccinia; wheat plants sprayed at 100 ppm, inoculated after 24 hours; control of fungal infection vs untreated plants; read-out: PUCCRT in vivo 1 Day Protectant
Work on O=C(NCc1ccc(Cl)c(Cl)c1)c1cccnc1O [Compound 517] yielded a pest or weed control at 100 ppm of less than 25%.
With COc1nc(O)c(C(=O)N[C@H]2COC(=O)[C@H](Cc3ccccc3)[C@@H](OC(=O)C(C)C)[C@H](C)OC2=O)nc1Cl [Compound 537] the pest or weed control at 100 ppm was 25 to 74%.

Same assay, conditions: wheat plants sprayed at 100 ppm, inoculated after 24 hours; control of fungal infection vs untreated plants
With Cc1ccnc(C(=O)N[C@H]2COC(=O)[C@H](Cc3ccccc3)[C@@H](OC(=O)C(C)C)[C@H](C)OC2=O)c1OC(=O)C(C)C [Compound 572] the “PUCCRT in vivo 1 Day Protectant” value was “+ +”.

Tested on: Mycosphaerella graminicola (Septoria tritici—SEPTTR)
Test: In vitro fungal growth inhibition, Mycosphaerella graminicola (SEPTTR)
Format: cell-based
Conditions: Zymoseptoria tritici, read-out: SEPTTR in vitro Growth Inhibition
In the case of Br.COc1ccnc(C(=O)NC2C[C@@H](Cc3ccccc3)O[C@@H](C)C2)c1O (stereo partly drawn) [Compound 311], the inhibition at 25 ppm is reported as less than 80%.

Same assay, conditions: Zymoseptoria tritici; 25 ppm in the growth medium; read-out: SEPTTR in vitro Growth Inhibition
With O=C(NCc1ccc(Cl)c(Cl)c1)c1cccnc1O [Compound 517] the inhibition at 25 ppm was less than 80%.
With COc1nc(O)c(C(=O)N[C@H]2COC(=O)[C@H](Cc3ccccc3)[C@@H](OC(=O)C(C)C)[C@H](C)OC2=O)nc1Cl [Compound 537] the inhibition at 25 ppm was less than 80%.
For Cc1ccnc(C(=O)N[C@H]2COC(=O)[C@H](Cc3ccccc3)[C@@H](OC(=O)C(C)C)[C@H](C)OC2=O)c1OC(=O)C(C)C [Compound 572], the inhibition at 25 ppm was less than 80%.

Tested on: Phytophthora infestans—PHYTIN
Test: whole plant or invertebrate
Format: in vivo
Conditions: Phytophthora, in Solanum lycopersicum, 24 h, read-out: PHYTIN in vivo 1 Day Protectant
In the case of O=C(NCc1ccc(Cl)c(Cl)c1)c1cccnc1O [Compound 517], the pest or weed control at 100 ppm is reported as less than 25%.
With COc1nc(O)c(C(=O)N[C@H]2COC(=O)[C@H](Cc3ccccc3)[C@@H](OC(=O)C(C)C)[C@H](C)OC2=O)nc1Cl [Compound 537] the pest or weed control at 100 ppm was less than 25%.
With Cc1ccnc(C(=O)N[C@H]2COC(=O)[C@H](Cc3ccccc3)[C@@H](OC(=O)C(C)C)[C@H](C)OC2=O)c1OC(=O)C(C)C [Compound 572] the pest or weed control at 100 ppm was less than 25%.
Br.COc1ccnc(C(=O)NC2C[C@@H](Cc3ccccc3)O[C@@H](C)C2)c1O (stereo partly drawn) [Compound 311] showed a pest or weed control at 100 ppm of less than 25%.

Tested on: Stagonospora nodorum (Leptosphaeria nodorum—LEPTNO)
Test: In vitro fungal growth inhibition, Stagonospora nodorum (LEPTNO)
Format: cell-based
Conditions: Leptosphaeria, read-out: LEPTNO in vitro Growth Inhibition
In the case of Br.COc1ccnc(C(=O)NC2C[C@@H](Cc3ccccc3)O[C@@H](C)C2)c1O (stereo partly drawn) [Compound 311], the inhibition at 25 ppm is reported as less than 80%.

Same assay, conditions: Leptosphaeria; 25 ppm in the growth medium; read-out: LEPTNO in vitro Growth Inhibition
With O=C(NCc1ccc(Cl)c(Cl)c1)c1cccnc1O [Compound 517] the inhibition at 25 ppm was less than 80%.
Compound COc1nc(O)c(C(=O)N[C@H]2COC(=O)[C@H](Cc3ccccc3)[C@@H](OC(=O)C(C)C)[C@H](C)OC2=O)nc1Cl [Compound 537] has an inhibition at 25 ppm of less than 80%.
For Cc1ccnc(C(=O)N[C@H]2COC(=O)[C@H](Cc3ccccc3)[C@@H](OC(=O)C(C)C)[C@H](C)OC2=O)c1OC(=O)C(C)C [Compound 572], the inhibition at 25 ppm was less than 80%.

Tested on: Leptosphaeria nodorum—LEPTNO
Test: Glume Blotch of Wheat, in vivo whole plant, 24 Hour Protectant
Conditions: Leptosphaeria, 24 h, read-out: LEPTNO in vivo 1 Day Protectant
For Br.COc1ccnc(C(=O)NC2C[C@@H](Cc3ccccc3)O[C@@H](C)C2)c1O (stereo partly drawn) [Compound 311], the pest or weed control at 100 ppm was 25 to 74%.

Same assay, conditions: Leptosphaeria; wheat plants sprayed at 100 ppm, inoculated after 24 hours; control of fungal infection vs untreated plants; read-out: LEPTNO in vivo 1 Day Protectant
With O=C(NCc1ccc(Cl)c(Cl)c1)c1cccnc1O [Compound 517] the pest or weed control at 100 ppm was 25 to 74%.
Cc1ccnc(C(=O)N[C@H]2COC(=O)[C@H](Cc3ccccc3)[C@@H](OC(=O)C(C)C)[C@H](C)OC2=O)c1OC(=O)C(C)C [Compound 572] gave a pest or weed control at 100 ppm of 25 to 74%.

Same assay, conditions: wheat plants sprayed at 100 ppm, inoculated after 24 hours; control of fungal infection vs untreated plants
For COc1nc(O)c(C(=O)N[C@H]2COC(=O)[C@H](Cc3ccccc3)[C@@H](OC(=O)C(C)C)[C@H](C)OC2=O)nc1Cl [Compound 537], the “LEPTNO in vivo 1 Day Protectant” value was “+ +”.

Tested on: Ustilago maydis (USTIMA)
Test: microbe, parasite or virus in culture
Format: cell-based
Conditions: Mycosarcoma maydis, read-out: USTIMA in vitro Growth Inhibition
For O=C(NCc1ccc(Cl)c(Cl)c1)c1cccnc1O [Compound 517], the inhibition at 25 ppm was less than 80%.
COc1nc(O)c(C(=O)N[C@H]2COC(=O)[C@H](Cc3ccccc3)[C@@H](OC(=O)C(C)C)[C@H](C)OC2=O)nc1Cl [Compound 537] gave an inhibition at 25 ppm of less than 80%.
Cc1ccnc(C(=O)N[C@H]2COC(=O)[C@H](Cc3ccccc3)[C@@H](OC(=O)C(C)C)[C@H](C)OC2=O)c1OC(=O)C(C)C [Compound 572] gave an inhibition at 25 ppm of less than 80%.
For Br.COc1ccnc(C(=O)NC2C[C@@H](Cc3ccccc3)O[C@@H](C)C2)c1O (stereo partly drawn) [Compound 311], the inhibition at 25 ppm was less than 80%.

Tested on: Erysiphe graminis—ERYSGT
Test: Powdery Mildew of Wheat, in vivo whole plant, 24 Hour Protectant
Conditions: Erysiphe, 24 h, read-out: ERYSGT in vivo 1 Day Protectant
Compound Br.COc1ccnc(C(=O)NC2C[C@@H](Cc3ccccc3)O[C@@H](C)C2)c1O (stereo partly drawn) [Compound 311] has a pest or weed control at 100 ppm of less than 25%.

Same assay, conditions: Erysiphe; wheat plants sprayed at 100 ppm, inoculated after 24 hours; control of fungal infection vs untreated plants; read-out: ERYSGT in vivo 1 Day Protectant
In the case of O=C(NCc1ccc(Cl)c(Cl)c1)c1cccnc1O [Compound 517], the pest or weed control at 100 ppm is reported as less than 25%.
COc1nc(O)c(C(=O)N[C@H]2COC(=O)[C@H](Cc3ccccc3)[C@@H](OC(=O)C(C)C)[C@H](C)OC2=O)nc1Cl [Compound 537] showed a pest or weed control at 100 ppm of less than 25%.
In the case of Cc1ccnc(C(=O)N[C@H]2COC(=O)[C@H](Cc3ccccc3)[C@@H](OC(=O)C(C)C)[C@H](C)OC2=O)c1OC(=O)C(C)C [Compound 572], the pest or weed control at 100 ppm is reported as less than 25%.

Tested on: Rhizoctonia solani (RHIZSO)
Test: microbe, parasite or virus in culture
Format: cell-based
Conditions: Rhizoctonia solani, read-out: RHIZSO in vitro Growth Inhibition
In the case of O=C(NCc1ccc(Cl)c(Cl)c1)c1cccnc1O [Compound 517], the inhibition at 25 ppm is reported as less than 80%.
COc1nc(O)c(C(=O)N[C@H]2COC(=O)[C@H](Cc3ccccc3)[C@@H](OC(=O)C(C)C)[C@H](C)OC2=O)nc1Cl [Compound 537] showed an inhibition at 25 ppm of less than 80%.
Cc1ccnc(C(=O)N[C@H]2COC(=O)[C@H](Cc3ccccc3)[C@@H](OC(=O)C(C)C)[C@H](C)OC2=O)c1OC(=O)C(C)C [Compound 572] gave an inhibition at 25 ppm of less than 80%.
Compound Br.COc1ccnc(C(=O)NC2C[C@@H](Cc3ccccc3)O[C@@H](C)C2)c1O (stereo partly drawn) [Compound 311] has an inhibition at 25 ppm of less than 80%.

Tested on: not given
Test: not given
Conditions: not given
With O=C(NCc1ccc(Cl)c(Cl)c1)c1cccnc1O [Compound 517] the melting point was 229 to 230 °C.
With COc1nc(O)c(C(=O)N[C@H]2COC(=O)[C@H](Cc3ccccc3)[C@@H](OC(=O)C(C)C)[C@H](C)OC2=O)nc1Cl [Compound 537] the melting point was 84 to 86 °C.
With Cc1ccnc(C(=O)N[C@H]2COC(=O)[C@H](Cc3ccccc3)[C@@H](OC(=O)C(C)C)[C@H](C)OC2=O)c1OC(=O)C(C)C [Compound 572] the melting point was 163 to 166 °C.
For Br.COc1ccnc(C(=O)NC2C[C@@H](Cc3ccccc3)O[C@@H](C)C2)c1O (stereo partly drawn) [Compound 311], the melting point was 156 to 158 °C.

Tested on: Magnaporthe grisea (Pyricularia oryzae—PYRIOR)
Test: microbe, parasite or virus in culture
Format: cell-based
Conditions: Pyricularia oryzae, read-out: PYRIOR in vitro Growth Inhibition
With O=C(NCc1ccc(Cl)c(Cl)c1)c1cccnc1O [Compound 517] the inhibition at 25 ppm was less than 80%.
Compound COc1nc(O)c(C(=O)N[C@H]2COC(=O)[C@H](Cc3ccccc3)[C@@H](OC(=O)C(C)C)[C@H](C)OC2=O)nc1Cl [Compound 537] has an inhibition at 25 ppm of less than 80%.
Cc1ccnc(C(=O)N[C@H]2COC(=O)[C@H](Cc3ccccc3)[C@@H](OC(=O)C(C)C)[C@H](C)OC2=O)c1OC(=O)C(C)C [Compound 572] showed an inhibition at 25 ppm of less than 80%.
For Br.COc1ccnc(C(=O)NC2C[C@@H](Cc3ccccc3)O[C@@H](C)C2)c1O (stereo partly drawn) [Compound 311], the inhibition at 25 ppm was less than 80%.
